The values that follow come from patent US20250154144A1 (CHILDREN'S HOSPITAL MEDICAL CENTER, priority 2021, published 2025).

Read-outs that look alike come from different tables or passages of the source.

One assay addresses IRAK1 (Homo sapiens, UniProt P51617). In words: RBC HotSpot Kinase Assay, IRAK1.
For another assay, the target named is T1, FLT3 (Homo sapiens, UniProt P36888).
T1 sequence (P36888 610-943 limits assumed): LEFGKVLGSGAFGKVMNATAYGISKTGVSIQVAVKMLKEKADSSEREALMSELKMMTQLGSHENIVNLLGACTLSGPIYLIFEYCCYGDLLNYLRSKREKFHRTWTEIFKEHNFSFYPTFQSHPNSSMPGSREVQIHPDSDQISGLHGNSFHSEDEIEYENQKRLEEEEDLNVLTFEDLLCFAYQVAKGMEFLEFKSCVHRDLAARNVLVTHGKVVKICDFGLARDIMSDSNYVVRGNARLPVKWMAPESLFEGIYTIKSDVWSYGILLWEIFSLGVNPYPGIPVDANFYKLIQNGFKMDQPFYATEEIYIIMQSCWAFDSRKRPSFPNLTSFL
In words: RBC HotSpot Kinase Assay, FLT3.

The target in a further assay is T2, IRAK4 (Homo sapiens, UniProt Q9NWZ3).
T2 sequence (Q9NWZ3 1-460): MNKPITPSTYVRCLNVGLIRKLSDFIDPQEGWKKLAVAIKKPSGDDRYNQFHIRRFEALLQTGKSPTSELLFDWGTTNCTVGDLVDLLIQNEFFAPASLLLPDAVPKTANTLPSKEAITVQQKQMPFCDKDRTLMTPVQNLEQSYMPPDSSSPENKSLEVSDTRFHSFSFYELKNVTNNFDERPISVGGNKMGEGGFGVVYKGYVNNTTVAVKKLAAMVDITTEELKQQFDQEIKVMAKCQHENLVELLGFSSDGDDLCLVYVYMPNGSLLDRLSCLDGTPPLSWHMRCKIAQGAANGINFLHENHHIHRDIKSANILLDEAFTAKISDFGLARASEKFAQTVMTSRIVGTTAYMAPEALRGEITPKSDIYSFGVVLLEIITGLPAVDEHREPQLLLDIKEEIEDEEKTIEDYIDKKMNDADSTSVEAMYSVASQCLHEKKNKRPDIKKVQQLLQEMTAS
The assay can be described thus: RBC HotSpot Kinase Assay, IRAK4.

The subject of another assay is THP1 cells. In words: Combination drug screening, Cell Titer Glo, 10 × 10 matrix, THP1 cells. In kind it is cell-based. A general note: Cellular ATP, detected with luciferase, serves as a proxy for viable cell number.
A further assay has as its system MOLM14(D835Y) cells. In kind it is cell-based. The settings on record: MOLM14(D835Y), 10 × 10.

IRAK1, sequence (P51617 whole entry): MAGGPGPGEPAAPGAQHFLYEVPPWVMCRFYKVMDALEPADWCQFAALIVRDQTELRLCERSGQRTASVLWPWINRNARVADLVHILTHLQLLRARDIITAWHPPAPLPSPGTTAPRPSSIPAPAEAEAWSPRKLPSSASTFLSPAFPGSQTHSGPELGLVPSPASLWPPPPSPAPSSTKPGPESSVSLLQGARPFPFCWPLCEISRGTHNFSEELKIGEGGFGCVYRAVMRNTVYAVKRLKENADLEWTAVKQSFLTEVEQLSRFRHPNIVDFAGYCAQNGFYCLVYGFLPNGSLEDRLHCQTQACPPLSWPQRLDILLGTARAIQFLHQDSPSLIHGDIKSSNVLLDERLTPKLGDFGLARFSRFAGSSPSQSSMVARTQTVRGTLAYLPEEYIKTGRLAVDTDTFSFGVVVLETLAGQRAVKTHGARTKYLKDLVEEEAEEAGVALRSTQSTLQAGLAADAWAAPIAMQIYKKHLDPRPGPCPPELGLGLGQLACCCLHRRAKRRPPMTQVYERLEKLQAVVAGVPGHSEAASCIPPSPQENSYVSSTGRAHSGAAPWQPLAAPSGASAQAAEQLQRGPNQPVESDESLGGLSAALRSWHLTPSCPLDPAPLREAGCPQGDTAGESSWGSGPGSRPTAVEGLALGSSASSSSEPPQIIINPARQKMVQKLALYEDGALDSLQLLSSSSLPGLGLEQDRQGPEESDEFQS

What is called IC50 is the midpoint of a concentration-inhibition curve. As for `COc1cc2ncc(-c3ccnc(N[C@H]4CNC[C@@H]4F)n3)n2cc1C(C)(O)C(F)(F)F` (single isomer, unassigned) [Compound 55], the IC50 on IRAK1 (IRAK1 IC50), on FLT3 (FLT3 IC50) and against IRAK4 (IRAK4 IC50) was under 0.5 nM throughout.

Consider `COc1cc2ncc(-c3ccnc(N[C@H]4CNC[C@@H]4F)n3)n2cc1C(C)(O)C(F)(F)F` (single isomer, unassigned) [Compound 56], for which the IC50 on IRAK1 (read-out: IRAK1 IC50), at FLT3 (read-out: FLT3 IC50) and at IRAK4 (read-out: IRAK4 IC50) was under 0.5 nM throughout.

With `COc1cc2ncc(-c3ccnc(N[C@@H]4CCCNC4)n3)n2cc1C(C)(O)C(F)(F)F` (single isomer, unassigned) [Compound 57], the IC50 against IRAK1 (IRAK1 IC50), against FLT3 (FLT3 IC50) and against IRAK4 (IRAK4 IC50) was under 0.5 nM throughout.

On to `CC(O)(c1cn2c(-c3ccnc(N[C@H]4CNCC[C@@H]4F)n3)cnc2cn1)C(F)(F)F` (single isomer, unassigned) [Compound 58], for which the IC50 is 0.6 nM at IRAK1 (IRAK1 IC50), under 0.5 nM against FLT3 (FLT3 IC50) and under 0.5 nM against IRAK4 (IRAK4 IC50).

On to `COc1cc2ncc(-c3cncc(N[C@H]4CNC[C@@H]4F)n3)n2cc1C(C)(O)C(F)(F)F` (single isomer, unassigned) [Compound 61], for which the concentration for half-maximal inhibition (IC50) against IRAK1 (IRAK1 IC50), against FLT3 (FLT3 IC50) and at IRAK4 (IRAK4 IC50) was under 0.5 nM in each case.

Consider `COc1cc2ncc(-c3cncc(N[C@H]4CNC[C@@H]4F)n3)n2cc1C(C)(O)C(F)(F)F` (single isomer, unassigned) [Compound 62], for which the results for the IC50 on IRAK1 (IRAK1 IC50), at FLT3 (read-out: FLT3 IC50) and on IRAK4 (read-out: IRAK4 IC50) were 2 nM, under 0.5 nM and under 0.5 nM, respectively.

Turning to `COc1cc2ncc(-c3cncc(N[C@@H]4CCCNC4)n3)n2cc1C(C)(O)C(F)(F)F` (single isomer, unassigned) [Compound 63], the IC50 against IRAK1 (IRAK1 IC50) was 2 nM; against FLT3 (FLT3 IC50) it was under 0.5 nM; at IRAK4 (IRAK4 IC50), 0.7 nM.

On to `COc1cc2ncc(-c3cncc(N[C@@H]4CCCNC4)n3)n2cc1C(C)(O)C(F)(F)F` (single isomer, unassigned) [Compound 64], for which the half-inhibitory concentration (IC50) on IRAK1 (IRAK1 IC50) is 1 nM; at FLT3 (read-out: FLT3 IC50), under 0.5 nM; at IRAK4 (IRAK4 IC50), under 0.5 nM.

`COc1cc2ncc(-c3cncc(N[C@H]4CNCC[C@@H]4F)n3)n2cc1C(C)(O)C(F)(F)F` (single isomer, unassigned) [Compound 65]: the IC50 on IRAK1 (IRAK1 IC50), against FLT3 (FLT3 IC50) and on IRAK4 (IRAK4 IC50) was under 0.5 nM throughout.

Regarding `COc1cc2ncc(-c3cncc(N[C@H]4CNCC[C@@H]4F)n3)n2cc1C(C)(O)C(F)(F)F` (single isomer, unassigned) [Compound 66], the IC50 at IRAK1 (read-out: IRAK1 IC50), at FLT3 (read-out: FLT3 IC50) and on IRAK4 (read-out: IRAK4 IC50) was under 0.5 nM throughout.

On to `COc1cc2ncc(-c3cncc(N[C@H]4CNCC[C@@H]4F)n3)n2nc1C(C)(O)C(F)(F)F` (single isomer, unassigned) [Compound 79], for which the IC50 against IRAK1 (IRAK1 IC50) was 1020 nM; against FLT3 (FLT3 IC50), 6 nM; at IRAK4 (IRAK4 IC50) it was 367 nM.

Take `COc1cc2ncc(-c3cncc(N[C@H]4CNCC[C@@H]4F)n3)n2nc1C(C)(O)C(F)(F)F` (single isomer, unassigned) [Compound 80]: the half-maximal inhibitory concentration (IC50) against IRAK1 (IRAK1 IC50) is 1120 nM; on FLT3 (FLT3 IC50), under 0.5 nM; on IRAK4 (IRAK4 IC50) it was 406 nM.

As to `COc1cc2ncc(-c3cncc(N[C@H]4CNC[C@@H]4F)n3)n2nc1C(C)(O)C(F)(F)F` (single isomer, unassigned) [Compound 81], the results for the IC50 at IRAK1 (IRAK1 IC50), against FLT3 (FLT3 IC50) and against IRAK4 (IRAK4 IC50) were 7900 nM, 8 nM and 2540 nM, respectively.

Take `COc1cc2ncc(-c3cncc(N[C@@H]4CCCNC4)n3)n2nc1C(C)(O)C(F)(F)F` (single isomer, unassigned) [Compound 82]: the IC50 against IRAK1 (IRAK1 IC50) worked out at 5440 nM; against FLT3 (FLT3 IC50) it was 67 nM; at IRAK4 (IRAK4 IC50), 2040 nM.

For `COc1cc2ncc(-c3cncc(N[C@H]4CNC[C@@H]4F)n3)n2nc1C(C)(O)C(F)(F)F` (single isomer, unassigned) [Compound 83], the half-inhibitory concentration (IC50) on IRAK1 (IRAK1 IC50) came out at 4690 nM; at FLT3 (FLT3 IC50), 1 nM; at IRAK4 (IRAK4 IC50), 544 nM.

With `COc1cc2ncc(-c3cncc(N[C@@H]4CCCNC4)n3)n2nc1C(C)(O)C(F)(F)F` (single isomer, unassigned) [Compound 84], the values for the IC50 against IRAK1 (IRAK1 IC50), against FLT3 (FLT3 IC50) and against IRAK4 (IRAK4 IC50) were 3020 nM, 2 nM and 512 nM, respectively.

On to `CC(C)(O)c1ccc2ncc(-c3cncc(N[C@H]4CNC[C@@H]4F)n3)n2c1` [Compound 16, 2-(3-(6-(((3S,4S)-4-fluoropyrrolidin-3-yl)amino)pyrazin-2-yl)imidazo[1,2-a]pyridin-6-yl)propan-2-ol], for which the half-maximal inhibitory concentration (IC50) at IRAK1 (IRAK1 IC50) stood at 237 nM; at FLT3 (FLT3 IC50), 5 nM; on IRAK4 (IRAK4 IC50), 13 nM.

With `CCc1nc(C(N)=O)c(Nc2ccc(N3CCC(N4CCN(C)CC4)CC3)c(OC)c2)nc1NC1CCOCC1` [Gilteritinib hemifumarate, Gilteritinib, reference compound], the “Excess HSA Score” value with THP1 cells (starting conc. 500 nM, with (+)-BAY-1251152 starting conc. 1000 nM) was −10.1945; in the assay on THP1 cells (starting conc. 500 nM, with Azacitidine (5-Azacytidine) starting conc. 20000 nM), −354.4; in the assay on THP1 cells (starting conc. 500 nM, with Palbociclib starting conc. 10000 nM), −228; in the assay with THP1 cells (starting conc. 500 nM, with Prednisolone starting conc. 10000 nM), 119.9; in the assay with THP1 cells (starting conc. 500 nM, with TNO-155 starting conc. 10000 nM) it was 15.34; in the assay on THP1 cells (starting conc. 500 nM, with Venetoclax (ABT-199) starting conc. 2000 nM) it was −95.51. Further, the “Excess HSA Score” value with THP1 cells (starting conc. 500 nM, with Venetoclax (ABT-199) starting conc. 20000 nM) was −866.3; in the assay with THP1 cells (starting conc. 20000 nM, with (+)-BAY-1251152 starting conc. 1000 nM), −484.1; in the assay on THP1 cells (starting conc. 20000 nM, with Azacitidine (5-Azacytidine) starting conc. 20000 nM), −391.5; in the assay on THP1 cells (starting conc. 20000 nM, with Palbociclib starting conc. 10000 nM), −415; in the assay on THP1 cells (starting conc. 20000 nM, with Prednisolone starting conc. 10000 nM) it was −149.2201; with THP1 cells (starting conc. 20000 nM, with TNO-155 starting conc. 10000 nM), −398.3. For the same molecule, the “Excess HSA Score” value in the assay on THP1 cells (starting conc. 20000 nM, with Venetoclax (ABT-199) starting conc. 2000 nM) is −448; with THP1 cells (starting conc. 20000 nM, with Venetoclax (ABT-199) starting conc. 20000 nM), −1390; with MOLM14(D835Y) cells (title compound starting conc. 500 nM + (+)-BAY-1251152 starting conc. 1000 nM), 161.1; with MOLM14(D835Y) cells (title compound starting conc. 500 nM + Azacitidine (5-Azacytidine) starting conc. 20000 nM), −848; in the assay on MOLM14(D835Y) cells (title compound starting conc. 500 nM + Palbociclib starting conc. 10000 nM), −910.3; in the assay with MOLM14(D835Y) cells (title compound starting conc. 500 nM + Prednisolone starting conc. 10000 nM) it was −285.8. The “Excess HSA Score” value is on record as −773.9 with MOLM14(D835Y) cells (title compound starting conc. 500 nM + TNO-155 starting conc. 10000 nM); −704 in the assay with MOLM14(D835Y) cells (title compound starting conc. 500 nM + Venetoclax (ABT-199) starting conc. 2000 nM); −237.3 with MOLM14(D835Y) cells (title compound starting conc. 500 nM + Venetoclax (ABT-199) starting conc. 20000 nM); 43.97 with MOLM14(D835Y) cells (title compound starting conc. 20000 nM + (+)-BAY-1251152 starting conc. 1000 nM); −117 with MOLM14(D835Y) cells (title compound starting conc. 20000 nM + Azacitidine (5-Azacytidine) starting conc. 20000 nM); −262.1121 in the assay with MOLM14(D835Y) cells (title compound starting conc. 20000 nM + Palbociclib starting conc. 10000 nM). The “Excess HSA Score” value with MOLM14(D835Y) cells (title compound starting conc. 20000 nM + Prednisolone starting conc. 10000 nM) is −290.6; in the assay with MOLM14(D835Y) cells (title compound starting conc. 20000 nM + TNO-155 starting conc. 10000 nM), −494.5; in the assay on MOLM14(D835Y) cells (title compound starting conc. 20000 nM + Venetoclax (ABT-199) starting conc. 2000 nM), −876.4; with MOLM14(D835Y) cells (title compound starting conc. 20000 nM + Venetoclax (ABT-199) starting conc. 20000 nM) it was −271.3.
